# Laboratory results: the supplement of paper PMC11061612
# Experiments:
# Assay in all cases: Bliss excess, mean over the matrix (fraction); higher = more synergy
# [1] = system: RERF-LC-KJ (Lung Adenocarcinoma)
# Procedure, shortened: (§1)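 Bliss excess equals the observed combination effect minus the expected value EA + EB − EA·EB, where EA and EB are the effects of each agent alone. Combination Emax is the second-highest inhibition within the matrix. Inhibition was scaled from CellTiter-Glo 2.0 luminescence, with 0 set by vehicle wells and 1 by blank wells, after 72 hours of two-drug dosing of cells plated in 1536-well plates.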
# [2] = system: CHL-1 (Melanoma)
# Procedure, shortened: as §1
# [3] = system: KYSE-70 (Esophageal Squamous Cell Carcinoma)
# Procedure, shortened: as §1
# [4] = system: NCI-H1755 (Lung Adenocarcinoma)
# Procedure, shortened: as §1
SMILES,Bliss excess [1],Bliss excess [2],Bliss excess [3],Bliss excess [4]
"CN(CCO)CC[C@H](CSc1ccccc1)Nc1ccc(S(=O)(=O)NC(=O)c2ccc(N3CCC([C@@H](O)c4ccccc4-c4ccc(Cl)cc4)CC3)cc2)cc1S(=O)(=O)C(F)(F)F [AZD4320] + Cc1cc2ncnn2cc1Nc1ncc2c(n1)n(C1CCOCC1)c(=O)n2C [AZD7648] (first compound max 1 µM, 7x7, partner max 10 µM)",-0.0314,-0.0391,-0.0225,-0.0279
"Cc1c2c(nn1C)CSCc1cc(n(C)n1)CSc1cc(c3ccccc3c1)OCCCc1c(C(=O)O)n(C)c3c-2c(Cl)ccc13 [AZD5991] + CCN(CCO)CCCOc1ccc2c(Nc3cc(CC(=O)Nc4cccc(F)c4)[nH]n3)ncnc2c1 [AZD2811] (first compound max 1 µM, 7x7, partner max 1 µM)",0.0402,0.114,0.0651,0.0561
"Cc1c2c(nn1C)CSCc1cc(n(C)n1)CSc1cc(c3ccccc3c1)OCCCc1c(C(=O)O)n(C)c3c-2c(Cl)ccc13 [AZD5991] + C[C@@H]1COCCN1C2=NC(=NC(=C2)C3(CC3)[S@](=N)(=O)C)C4=C5C=CNC5=NC=C4 [AZD6738] (first compound max 1 µM, 7x7, partner max 10 µM)",0.0331,0.0789,0.0485,-0.0171
"Cc1cc2ncnn2cc1Nc1ncc2c(n1)n(C1CCOCC1)c(=O)n2C [AZD7648] + C[C@@H]1COCCN1C2=NC(=NC(=C2)C3(CC3)[S@](=N)(=O)C)C4=C5C=CNC5=NC=C4 [AZD6738] (first compound max 10 µM, 7x7, partner max 10 µM)",0.0386,0.0093,0.0213,0.0513
"CC1(C)CCC(CN2CCN(c3ccc(C(=O)NS(=O)(=O)c4ccc(NCC5CCOCC5)c([N+](=O)[O-])c4)c(Oc4cnc5[nH]ccc5c4)c3)CC2)=C(c2ccc(Cl)cc2)C1 [Venetoclax] + Cn1cnc2c(F)c(Nc3ccc(Br)cc3Cl)c(C(=O)NOCCO)cc21 [Selumetinib] (first compound max 1 µM, 7x7, partner max 3 µM)",-0.0265,-0.0418,0.012,0.0328
"C=CCn1c(=O)c2cnc(Nc3ccc(N4CCN(C)CC4)cc3)nc2n1-c1cccc(C(C)(C)O)n1 [AZD1775] + O=C(c1cc(Cc2n[nH]c(=O)c3ccccc23)ccc1F)N1CCN(C(=O)C2CC2)CC1 [Olaparib] (first compound max 1 µM, partner max 10 µM)",-0.035,-0.0491,-0.0188,-0.0291
"C=CCn1c(=O)c2cnc(Nc3ccc(N4CCN(C)CC4)cc3)nc2n1-c1cccc(C(C)(C)O)n1 [AZD1775] + C[C@@H]1COCCN1C2=NC(=NC(=C2)C3(CC3)[S@](=N)(=O)C)C4=C5C=CNC5=NC=C4 [AZD6738] (first compound max 1 µM, partner max 10 µM)",-0.0151,-0.0012,0.0329,-0.0276
"CC1(C)CCC(CN2CCN(c3ccc(C(=O)NS(=O)(=O)c4ccc(NCC5CCOCC5)c([N+](=O)[O-])c4)c(Oc4cnc5[nH]ccc5c4)c3)CC2)=C(c2ccc(Cl)cc2)C1 [Venetoclax] + Cc1cc2ncnn2cc1Nc1ncc2c(n1)n(C1CCOCC1)c(=O)n2C [AZD7648] (first compound max 1 µM, 7x7, partner max 10 µM)",-0.0564,-0.0264,-0.0003,-0.025
"Cc1c2c(nn1C)CSCc1cc(n(C)n1)CSc1cc(c3ccccc3c1)OCCCc1c(C(=O)O)n(C)c3c-2c(Cl)ccc13 [AZD5991] + C1CN(CCC1(C(=O)N[C@@H](CCO)C2=CC=C(C=C2)Cl)N)C3=NC=NC4=C3C=CN4 [Capivasertib] (first compound max 1 µM, 7x7, partner max 3 µM)",-0.0112,0.0092,0.0065,0.0186
"Cc1c2c(nn1C)CSCc1cc(n(C)n1)CSc1cc(c3ccccc3c1)OCCCc1c(C(=O)O)n(C)c3c-2c(Cl)ccc13 [AZD5991] + CN(C)CCCOc1ccc(-c2ccc3ncc4c(c3c2)n(C2CCOCC2)c(=O)n4C)cn1 [AZD0156] (first compound max 1 µM, 7x7, partner max 1 µM)",-0.0296,0.0218,0.0286,-0.0214
"CC1(C)CCC(CN2CCN(c3ccc(C(=O)NS(=O)(=O)c4ccc(NCC5CCOCC5)c([N+](=O)[O-])c4)c(Oc4cnc5[nH]ccc5c4)c3)CC2)=C(c2ccc(Cl)cc2)C1 [Venetoclax] + CN(C)CCCOc1ccc(-c2ccc3ncc4c(c3c2)n(C2CCOCC2)c(=O)n4C)cn1 [AZD0156] (first compound max 1 µM, 7x7, partner max 1 µM)",0.013,0.0082,-0.0359,0.0342
"COc1cccc(OCCCN)c1-c1cc(Nc2cnc(C#N)cn2)n[nH]1 [Prexasertib] + CCc1c2c(nc3ccc(O)cc13)-c1cc3c(c(=O)n1C2)COC(=O)[C@]3(O)CC [SN-38] (first compound max 1 µM, 7x7, partner max 0.3 µM)",0.0513,0.0254,0.0907,-0.0057
"CN(C)CCCOc1ccc(-c2ccc3ncc4c(c3c2)n(C2CCOCC2)c(=O)n4C)cn1 [AZD0156] + CCN(CCO)CCCOc1ccc2c(Nc3cc(CC(=O)Nc4cccc(F)c4)[nH]n3)ncnc2c1 [AZD2811] (first compound max 1 µM, 7x7, partner max 1 µM)",-0.004,0.0015,0.0006,-0.0132
